Reference: patent publication US20050037033A1, “Microbicidal compositions and methods and use” (priority 2003, published 2005)

Legend:
Experiment in all cases: Aerobe inhibition assay
Assay type in all cases: cell-based
Strep pyogenes = details: 2 strains, read-out: Minimum Inhibitory Concentrations (MICs)
Experimental: (§1) The aerobic organisms were suspended into saline to the turbidity of the 0.5 McFarland standard, diluted 1:10, pipetted into the wells of the Steers replicator head, and stamped onto the Mueller Hinton agar plates containing the serial dilutions of the antimicrobials.
(§2) The anaerobes were incubated in an anaerobic chamber at 37° C. for 2 days; aerobes were incubated in ambient air at 36° C. for 20h.

C. albicans = details: Candida albicans; 2 strains; read-out: Minimum Inhibitory Concentrations (MICs)
Experimental: as §1, §2

Enterococcus faecium = details: 1 strain, read-out: Minimum Inhibitory Concentrations (MICs)
Experimental: as §1, §2

Strep agalactiae = details: 2 strains
Experimental: as §1, §2

E. coli = details: 2 strains
Experimental: as §1, §2

Enterococcus faecalis = details: 1 strain, read-out: Minimum Inhibitory Concentrations (MICs)
Experimental: as §1, §2

Pseudo fluorescens = details: 1 strain, read-out: Minimum Inhibitory Concentrations (MICs)
Experimental: as §1, §2

Pseudo aerug = details: 1 strain, read-out: Minimum Inhibitory Concentrations (MICs)
Experimental: as §1, §2

Cc1cc(C2CCCCC2)n(O)c(=O)c1.NCCO [CO, 6-Cyclohexyl-1-hydroxy-4-methyl-2-(1H)-pyridone ethanolamine salt]
MIC (Strep pyogenes): 80 mg/L
MIC (C. albicans): 20 mg/L
MIC (Enterococcus faecium): 40 mg/L
Minimum Inhibitory Concentrations (MICs) (Strep agalactiae): 160 µg/mL
MIC (Strep agalactiae; read-out: Minimum Inhibitory Concentrations (MICs)): 80 mg/L
Minimum Inhibitory Concentrations (MICs) (E. coli): 80 µg/mL
MIC (E. coli; Escherichia coli, read-out: Minimum Inhibitory Concentrations (MICs)): 40 mg/L
MIC (Enterococcus faecalis): 80 mg/L
MIC (Pseudo fluorescens): 160 mg/L
MIC (Pseudo aerug): 80 mg/L
